Results as given in ChEMBL document CHEMBL3046950, “Insecticide resistance traits differ among and within host races in Aphis gossypii” (2010).

Experiments:
Aphis gossypii [1] = test: Insecticidal activity against Aphis gossypii clone Burk (cotton aphid) in egg plant leaf assessed as mortality after 24 hr by leaf disk assay in presence of piperonyl butoxide; assay type: functional
Aphis gossypii [2] = test: Insecticidal activity against Aphis gossypii clone Auber (cotton aphid) in egg plant leaf assessed as mortality after 24 hr by leaf disk assay in presence of piperonyl butoxide; assay type: functional
Aphis gossypii [3] = test: Insecticidal activity against Aphis gossypii clone Auber (cotton aphid) in egg plant leaf assessed as mortality after 24 hr by leaf disk assay in presence of S,S,S-tri-n-butyl phosphorotrithioate; assay type: functional
Aphis gossypii [4] = test: Insecticidal activity against Aphis gossypii clone NM1 (cotton aphid) in zucchini or squash leaf assessed as mortality after 24 hr by leaf disk assay in presence of S,S,S-tri-n-butyl phosphorotrithioate; assay type: functional
Aphis gossypii [5] = test: Insecticidal activity against Aphis gossypii clone NM1 (cotton aphid) in zucchini or squash leaf assessed as mortality after 24 hr by leaf disk assay in presence of piperonyl butoxide; assay type: functional
Aphis gossypii [6] = assay type: functional
Aphis gossypii [7] = assay type: functional; remark: listed apart in the source
Aphis gossypii [8] = assay type: functional; remark: listed apart in the source
Aphis gossypii [9] = test: Synergist ratio, ratio of LC50 for Aphis gossypii clone Burk (cotton aphid) in presence of S,S,S-tri-n-butyl phosphorotrithioate to LC50 for Aphis gossypii clone Burk; assay type: functional
Aphis gossypii [10] = test: Synergist ratio, ratio of LC50 for Aphis gossypii clone Burk (cotton aphid) in presence of piperonyl butoxide to LC50 for Aphis gossypii clone […]; assay type: functional
Aphis gossypii [11] = test: Synergist ratio, ratio of LC50 for Aphis gossypii clone NM1 (cotton aphid) in presence of S,S,S-tri-n-butyl phosphorotrithioate to LC50 for Aphis gossypii clone NM1; assay type: functional
Aphis gossypii [12] = test: Synergist ratio, ratio of LC50 for Aphis gossypii clone NM1 (cotton aphid) in presence of piperonyl butoxide to LC50 for Aphis gossypii clone NM1; assay type: functional
Aphis gossypii [13] = test: Synergist ratio, ratio of LC50 for Aphis gossypii clone Auber (cotton aphid) in presence of piperonyl butoxide to LC50 for Aphis gossypii clone Auber; assay type: functional
Aphis gossypii [14] = test: Synergist ratio, ratio of LC50 for Aphis gossypii clone Auber (cotton aphid) in presence of S,S,S-tri-n-butyl phosphorotrithioate to LC50 for Aphis gossypii clone Auber; assay type: functional
Aphis gossypii [15] = test: Insecticidal activity against Aphis gossypii clone Burk (cotton aphid) in egg plant leaf assessed as mortality after 24 hr by leaf disk assay in presence of S,S,S-tri-n-butyl phosphorotrithioate; assay type: functional
Aphis gossypii [16] = assay type: functional; remark: listed apart in the source
Aphis gossypii [17] = assay type: functional; remark: listed apart in the source
Aphis gossypii [18] = assay type: functional; remark: listed apart in the source
Aphis gossypii [19] = test: Insecticidal activity against Aphis gossypii clone Ivo (cotton aphid) in cotton plant leaf assessed as mortality after 24 hr by leaf disk assay; assay type: functional
Aphis gossypii [20] = test: Insecticidal activity against Aphis gossypii clone Burk (cotton aphid) in cotton plant leaf assessed as mortality after 24 hr by leaf disk assay; assay type: functional
Aphis gossypii [21] = test: Insecticidal activity against Aphis gossypii clone Auber (cotton aphid) in egg plant leaf assessed as mortality after 24 hr by leaf disk assay; assay type: functional
Aphis gossypii [22] = test: Insecticidal activity against Aphis gossypii clone PsP4 (cotton aphid) in pepper plant leaf assessed as mortality after 24 hr by leaf disk assay; assay type: functional
Aphis gossypii [23] = assay type: functional, clone C4
Aphis gossypii [24] = assay type: functional, clone C9
Aphis gossypii [25] = assay type: functional, clone NM1

SMILES	RatioLC50 (Aphis gossypii [6])	RatioLC50 (Aphis gossypii [7])	RatioLC50 (Aphis gossypii [8])	RatioLC50 (Aphis gossypii [16])	RatioLC50 (Aphis gossypii [17])	RatioLC50 (Aphis gossypii [18])	LC50 (Aphis gossypii [19]) [ugAi/ml]	LC50 (Aphis gossypii [20]) [ugAi/ml]	LC50 (Aphis gossypii [21]) [ugAi/ml]	LC50 (Aphis gossypii [22]) [ugAi/ml]	LC50 (Aphis gossypii [23]) [ugAi/ml]	LC50 (Aphis gossypii [24]) [ugAi/ml]	LC50 (Aphis gossypii [25]) [ugAi/ml]	also measured
CC1(C)C(C=C(Cl)Cl)C1C(=O)OC(C#N)c1cccc(Oc2ccccc2)c1 (stereo not drawn) [ALPHA-CYPERMETHRIN]	0.5	473	41.2	1.4	0.4	0.5	7.1	6763.5	504	19.7	6.3	7.2	10.9	LC50 (Aphis gossypii [1]): 207 ugAi/ml; LC50 (Aphis gossypii [2]): 23360 ugAi/ml; LC50 (Aphis gossypii [3]): 8.5 ugAi/ml; LC50 (Aphis gossypii [4]): 119 ugAi/ml; LC50 (Aphis gossypii [5]): 13.2 ugAi/ml; RatioLC50 (Aphis gossypii [9]): 1.3; RatioLC50 (Aphis gossypii [10]): 1; RatioLC50 (Aphis gossypii [11]): 1.3; RatioLC50 (Aphis gossypii [12]): 0.8; RatioLC50 (Aphis gossypii [13]): 4.2; RatioLC50 (Aphis gossypii [14]): 2.4; LC50 (Aphis gossypii [15]): 18516 ugAi/ml
C/C(=N\C#N)N(C)Cc1ccc(Cl)nc1	1	1.6	2	0.6	0.9	1.1	4	6.4	7.9	2.5	3.7	4.3	3.9	–
CCCSP(=O)(OCC)Oc1ccc(Br)cc1Cl (centres undefined) [PROFENOFOS]	0.4	4.4	5.3	6.8	1.3	1.5	4.3	50	59.6	77.1	15	17.2	11.3	–
CCCCN(CCCC)SN(C)C(=O)Oc1cccc2c1OC(C)(C)C2 [CARBOSULFAN]	0.5	0.7	0.9	0.9	1.2	1.2	2.2	3.1	4	4.2	5.7	5.6	4.6	–
Clc1ccc(C(c2ccc(Cl)cc2)C(Cl)(Cl)Cl)cc1 [CHLOROPHENOTHANE]	–	148.7	1.4	–	–	–	–	30738.4	291.6	–	–	–	206.7	–
